The text below walks through data of patent US9637491B2, “Pyrazolo[4,3-D]pyrimidines as kinase inhibitors” (Origenis GmbH, priority 2012, dated 2017).

The target in this experiment is T1, SYK kinase (Homo sapiens, UniProt P43405).
T1 construct: purchased Invitrogen, Carlsbad
In words: SYK assay (OMNIA Kinase Assay, Invitrogen). It counts as biochemical. Particulars: SYK Activities; 1 mM ATP, 10 μM Omnia Peptide Substrate Tyr 7, 30° C. Here is the method:
In the assay OMNIA® KINASE ASSAY by Invitrogen Corporation (Carlsbad) the effect of invention of a compound on the phosphorylation is determined by measurement of fluorescence intensity of a chelation-enhanced fluorophore called SOX. Upon phosphorylation of the peptide by the kinase of interest, Mg2+ is chelated to form a bridge between the SOX moiety and the phosphate group that is transferred to the specific tyrosine on the peptide. The fluorescence intensity is directly proportional to the amount of peptide phosphorylation.
To the wells of an 384 well small volume plate (Greiner, Frickenhausen) are added (i) the compound under test in 5% DMSO/distilled water (2 μl), (ii) 16 μl of the master mix containing ATP, DTT, Kinase Reaction Buffer, Omina Peptide Substrate Tyr 7 resulting in a final concentration of 1 mM ATP, 0.2 mM DTT and 10 μM Peptide Substrate. The Master Mix and the assay plate was incubated to reaction temperature before the measurement (30° C.). The reaction was started with addition of (iii) 2 μl 4 μg/ml SYK kinase (Invitrogen, Carlsbad). During measurement fluorescence intensitiy readings were collected using a TECAN M1000 at a wavelength of λex 360/λem 485 nm every 30 s for 30 minutes. The reaction velocity was plotted versus the inhibitor concentration to determine the IC50 using XLFit 5.0 (IDBS, Guildford) to fit to a sigmoidal dose response curve.
For `Fc1cc(Nc2nc(-c3ccc4cn[nH]c4c3)nc3cn[nH]c23)ccc1N1CCOCC1` [Example 46, N-(3-fluoro-4-morpholinophenyl)-5-(1H-indazol-6-yl)-1H-pyrazolo[4,3-d]pyrimidin-7-amine], the IC50 is 10 to 100 nM. For `c1nc(-c2nc(Nc3ccc(N4CCOCC4)cc3)c3[nH]ncc3n2)co1` [Example 48, N-(4-morpholinophenyl)-5-(oxazol-4-yl)-1H-pyrazolo[4,3-d]pyrimidin-7-amine] the value was 100 to 1000 nM. Take `CC(C)(C)N1CCN(c2ccc(Nc3nc(-c4cocn4)nc4cn[nH]c34)cc2)CC1` [Example 49, N-(4-(4-(tert-butyl)piperazin-1-yl)phenyl)-5-(oxazol-4-yl)-1H-pyrazolo[4,3-d]pyrimidin-7-amine]: the IC50 is 10 to 100 nM.

As for `CC(=O)N1CCN(c2ccc(Nc3nc(-c4ccc5cn[nH]c5c4)nc4cn[nH]c34)cc2)CC1` [Example 50, 1-(4-(4-((5-(1H-indazol-6-yl)-1H-pyrazolo[4,3-d]pyrimidin-7-yl)amino)phenyl)piperazin-1-yl)ethan-1-one], the IC50 is < 10 nM. `COc1ccc(Nc2nc(-c3sccc3C)nc3cn[nH]c23)cc1OC` [Example 51, N-(3,4-dimethoxyphenyl)-5-(3-methylthiophen-2-yl)-1H-pyrazolo[4,3-d]pyrimidin-7-amine]: the IC50 lay in the range of 10 to 100 nM. For `Cc1ccsc1-c1nc(Nc2ccc(N3CCOCC3)cc2)c2[nH]ncc2n1` [Example 52, 5-(3-methylthiophen-2-yl)-N-(4-morpholinophenyl)-1H-pyrazolo[4,3-d]pyrimidin-7-amine] the value was 10 to 100 nM.

For the compound `CN1CCN(C2CCN(C(=O)c3ccc(Nc4nc(C5CC5)nc5cn[nH]c45)cc3)CC2)CC1` [Example 53, (4-((5-cyclopropyl-1H-pyrazolo[4,3-d]pyrimidin-7-yl)amino)phenyl)(4-(4-methylpiperazin-1-yl)piperidin-1-yl)methanone], the IC50 lay in the range of 100 to 1000 nM.

Turning to `COc1cc(Nc2nc(-c3ccc4cn[nH]c4c3)nc3cn[nH]c23)ccc1N1CCOCC1` [Example 54, 5-(1H-indazol-6-yl)-N-(3-methoxy-4-morpholinophenyl)-1H-pyrazolo[4,3-d]pyrimidin-7-amine], the IC50 was < 10 nM. For `c1cc(N2CCNCC2)ccc1Nc1nc(C2CC2)nc2cn[nH]c12` [Example 55, 5-cyclopropyl-N-(4-(piperazin-1-yl)phenyl)-1H-pyrazolo[4,3-d]pyrimidin-7-amine] the value was 100 to 1000 nM; for `CC(=O)N1CCN(c2ccc(Nc3nc(-c4ccno4)nc4cn[nH]c34)cc2)CC1` [Example 67, 1-(4-(4-((5-(isoxazol-5-yl)-1H-pyrazolo[4,3-d]pyrimidin-7-yl)amino)phenyl)piperazin-1-yl)ethan-1-one], 100 to 1000 nM; for `COc1ccc(Nc2nc(-c3ccno3)nc3cn[nH]c23)cc1OC` [Example 68, N-(3,4-dimethoxyphenyl)-5-(isoxazol-5-yl)-1H-pyrazolo[4,3-d]pyrimidin-7-amine], 100 to 1000 nM.

As for `c1cc(-c2nc(Nc3ccc(N4CCOCC4)cc3)c3[nH]ncc3n2)on1` [Example 69, 5-(isoxazol-5-yl)-N-(4-morpholinophenyl)-1H-pyrazolo[4,3-d]pyrimidin-7-amine], the IC50 is < 10 nM. In turn, `Fc1cc(Nc2nc(-c3ccno3)nc3cn[nH]c23)ccc1N1CCOCC1` [Example 70, N-(3-fluoro-4-morpholinophenyl)-5-(isoxazol-5-yl)-1H-pyrazolo[4,3-d]pyrimidin-7-amine] gave an IC50 of 100 to 1000 nM. For `COc1cc(Nc2nc(-c3ccno3)nc3cn[nH]c23)ccc1N1CCOCC1` [Example 71, 5-(isoxazol-5-yl)-N-(3-methoxy-4-morpholinophenyl)-1H-pyrazolo[4,3-d]pyrimidin-7-amine] the value was 100 to 1000 nM; for `CC(=O)N1CCN(c2ccc(Nc3nc(-c4ccon4)nc4cn[nH]c34)cc2)CC1` [Example 72, 1-(4-(4-((5-(isoxazol-3-yl)-1H-pyrazolo[4,3-d]pyrimidin-7-yl)amino)phenyl)piperazin-1-yl)ethan-1-one], 100 to 1000 nM.

`COc1ccc(Nc2nc(-c3ccon3)nc3cn[nH]c23)cc1OC` [Example 73, N-(3,4-dimethoxyphenyl)-5-(isoxazol-3-yl)-1H-pyrazolo[4,3-d]pyrimidin-7-amine]: the IC50 lay in the range of 100 to 1000 nM. For `c1cc(-c2nc(Nc3ccc(N4CCOCC4)cc3)c3[nH]ncc3n2)no1` [Example 74, 5-(isoxazol-3-yl)-N-(4-morpholinophenyl)-1H-pyrazolo[4,3-d]pyrimidin-7-amine] the value was 100 to 1000 nM; for `Fc1cc(Nc2nc(-c3ccon3)nc3cn[nH]c23)ccc1N1CCOCC1` [Example 75, N-(3-fluoro-4-morpholinophenyl)-5-(isoxazol-3-yl)-1H-pyrazolo[4,3-d]pyrimidin-7-amine], 100 to 1000 nM. For `COc1cc(Nc2nc(-c3ccon3)nc3cn[nH]c23)ccc1N1CCOCC1` [Example 76, 5-(isoxazol-3-yl)-N-(3-methoxy-4-morpholinophenyl)-1H-pyrazolo[4,3-d]pyrimidin-7-amine] the value was 100 to 1000 nM; for `Fc1cc2cn[nH]c2cc1-c1nc(Nc2ccc(N3CCOCC3)cc2)c2[nH]ncc2n1` [Example 77, 5-(5-fluoro-1H-indazol-6-yl)-N-(4-morpholinophenyl)-1H-pyrazolo[4,3-d]pyrimidin-7-amine], 10 to 100 nM; for `COc1ccc(Nc2nc(C3CCOC3)nc3cn[nH]c23)cc1OC` (centres unmarked) [Example 80, N-(3,4-dimethoxyphenyl)-5-(tetrahydrofuran-3-yl)-1H-pyrazolo[4,3-d]pyrimidin-7-amine], 100 to 1000 nM. As for `c1cc(N2CCOCC2)ccc1Nc1nc(C2COCCO2)nc2cn[nH]c12` (centres unmarked) [Example 84, 5-(1,4-dioxan-2-yl)-N-(4-morpholinophenyl)-1H-pyrazolo[4,3-d]pyrimidin-7-amine], the IC50 lay within 100 to 1000 nM. Compound `N#Cc1cc(Nc2nc(-c3ccc4cn[nH]c4c3)nc3cn[nH]c23)ccc1N1CCOCC1` [Example 85, 5-((5-(1H-indazol-6-yl)-1H-pyrazolo[4,3-d]pyrimidin-7-yl)amino)-2-morpholinobenzonitrile] showed an IC50 of 10 to 100 nM. For `c1coc(-c2nc(Nc3ccc(N4CCOCC4)cc3)c3[nH]ncc3n2)c1` [Example 86, 5-(furan-2-yl)-N-(4-morpholinophenyl)-1H-pyrazolo[4,3-d]pyrimidin-7-amine] the value was 10 to 100 nM; for `COc1ccc(Nc2nc(-c3ccco3)nc3cn[nH]c23)cc1OC` [Example 87, N-(3,4-dimethoxyphenyl)-5-(furan-2-yl)-1H-pyrazolo[4,3-d]pyrimidin-7-amine], 10 to 100 nM.

As to `c1cc(-c2nc(Nc3ccc(N4CCOCC4)cc3)c3[nH]ncc3n2)co1` [Example 94, 5-(furan-3-yl)-N-(4-morpholinophenyl)-1H-pyrazolo[4,3-d]pyrimidin-7-amine], the IC50 fell in the range of 10 to 100 nM.

For the compound `COc1ccc(Nc2nc(-c3ccoc3)nc3cn[nH]c23)cc1OC` [Example 95, N-(3,4-dimethoxyphenyl)-5-(furan-3-yl)-1H-pyrazolo[4,3-d]pyrimidin-7-amine], the IC50 fell in the range of 100 to 1000 nM. For `CC(=O)N1CCN(c2ccc(Nc3nc(-c4ccoc4)nc4cn[nH]c34)cc2)CC1` [Example 96, 1-(4-(4-((5-(furan-3-yl)-1H-pyrazolo[4,3-d]pyrimidin-7-yl)amino)phenyl)piperazin-1-yl)ethan-1-one] the value was 10 to 100 nM. For `CC(C)(C)N1CCN(c2ccc(Nc3nc(-c4ccoc4)nc4cn[nH]c34)cc2)CC1` [Example 97, N-(4-(4-(tert-butyl)piperazin-1-yl)phenyl)-5-(furan-3-yl)-1H-pyrazolo[4,3-d]pyrimidin-7-amine] the value was 10 to 100 nM; for `O=C1OCCN1c1ccc(Nc2nc(-c3ccoc3)nc3cn[nH]c23)cc1` [Example 98], 100 to 1000 nM.

As for `CC1(c2nc(Nc3ccc(N4CCOCC4)cc3)c3[nH]ncc3n2)CC1` [Example 99, 5-(1-methylcyclopropyl)-N-(4-morpholinophenyl)-1H-pyrazolo[4,3-d]pyrimidin-7-amine], the IC50 lay in the range of 100 to 1000 nM.

Take `CC(=O)N1CCN(c2ccc(Nc3nc(C4(C)CC4)nc4cn[nH]c34)cc2)CC1` [Example 100, 1-(4-(4-((5-(1-methylcyclopropyl)-1H-pyrazolo[4,3-d]pyrimidin-7-yl)amino)phenyl)piperazin-1-yl)ethan-1-one]: the IC50 was in the range of 100 to 1000 nM. `CC1CC1c1nc(Nc2ccc(N3CCOCC3)cc2)c2[nH]ncc2n1` (centres unmarked) [Example 101, 5-(2-methylcyclopropyl)-N-(4-morpholinophenyl)-1H-pyrazolo[4,3-d]pyrimidin-7-amine]: the IC50 lay in the range of 10 to 100 nM.

Take `CC(=O)N1CCN(c2ccc(Nc3nc(C4CC4C)nc4cn[nH]c34)cc2)CC1` (centres unmarked) [Example 102, 1-(4-(4-((5-(2-methylcyclopropyl)-1H-pyrazolo[4,3-d]pyrimidin-7-yl)amino)phenyl)piperazin-1-yl)ethan-1-one]: the IC50 was in the range of 100 to 1000 nM. For `CC1CC1c1nc(Nc2cnn(C3CCOCC3)c2)c2[nH]ncc2n1` (centres unmarked) [Example 103, 5-(2-methylcyclopropyl)-N-(1-(tetrahydro-2H-pyran-4-yl)-1H-pyrazol-4-yl)-1H-pyrazolo[4,3-d]pyrimidin-7-amine] the value was 100 to 1000 nM.

Usually IC50 stands for the concentration that inhibits the measured activity by half. Low values mean greater potency, high ones weaker potency.
